Data from US6232347A, “Treatment of osteoarthritis” (Knoll Pharmaceutical Company, priority 2000, dated 2001).

System: reuptake of all three monoamines
Assay: monoamine reuptake inhibition profile (summary in words of Table 1)
Type: biochemical, rat
Settings: with reference to Table 1, sibutramine through its pharmacologically active metabolites

CC(C)CC(N(C)C)C1(c2ccc(Cl)cc2)CCC1 (stereo not shown) [Sibutramine, N,N-dimethyl-1-[1-(4-chlorophenyl)cyclobutyl]-3-methylbutylamine]
inhibition of monoamine reuptake / selectivity profile: inhibits the reuptake of all three monoamines
